Patent publication US20140017673A1, “METHOD FOR ENUMERATING EUKARYOTIC CELL MICRONUCLEI WITH AN EMPHASIS ON SIMULTANEOUSLY ACQUIRING CYTOTOXICITY AND MODE OF ACTION INFORMATION” (priority 2012, published 2014)
Counter-ions that a name gives are not always drawn. Like-named read-outs stand apart in the source and are kept apart here. Blank lines part the entries; values can stand above or below the molecule they belong to.

How the values were obtained:
TK6 cells [1] = assay: Polyploidy as an aneugenic signature (flow cytometry, 96-well plate); settings: 0.025 μg paclitaxel/ml, approximately 24 hrs
TK6 cells [2] = settings: human
TK6 cells [3] = assay: Treatment with demecolcine and assessment of anti-H3-P performance (metaphase events by flow cytometry); type: cell-based, human; settings: 0.05 ng/ml, 5 hours
Protocol: TK6 cells were treated with 0 or 0.05 ng demecolcine/ml in T25 tissue culture flasks. At the start of treatment, cells were at 5×10^5/ml in a volume of 20 ml per flask. Flasks were incubated at 37° C., 5% CO2, and in a humid atmosphere. After 5 hours, flasks were removed and 1 ml aliquots were placed in to 15 ml centrifuge tubes. Cells were collected via centrifugation, and supernatants aspirated such that approximately 25 μl of supernatant remained per tube. Cells were gently resuspended with tapping. 300 μl “Lysis Solution 1” was added slowly to each tube (approximately 5 seconds per sample). […]
Samples were gently pipetted to resuspend the particles. […] SYTOX®-associated fluorescence emission was collected in the FITC channel, EMA-associated fluorescence was collected in the PerCP-Cy5 channel, and anti-H3-P-Alexa 647 associated fluorescence was collected in the APC channel. Events were triggered on FITC fluorescence. The flow cytometry gating strategy that was developed for this scoring application required events to meet each of several separate criteria before they were scored as nuclei, MN, chromatin debris, or metaphase chromosomes. […]
In this experiment, TK6 cells were treated with 0 or 0.05 ng/ml demecolcine, a metaphase blocking agent. […] However, the anti-H3-P associated fluorescence signal is able to differentiate between G2 and metaphase chromosomes. […]

- induction of polyploid nuclei (8n), FIG. 6 (TK6 cells [1]): robust induction
- Avg. % EMA+ (TK6 cells [2]; 1.6 μg/ml): 3.7%
- Avg. % M (TK6 cells [2]; 1.6 μg/ml): 1.7%
- Avg. % MN (TK6 cells [2]; 1.6 μg/ml): 1.5%
- Avg. M as % G2/M (TK6 cells [2]; 1.6 μg/ml): 7.1%
- Avg. % EMA+ (TK6 cells [2]; 2.4 μg/ml): 7.3%
- Avg. % M (TK6 cells [2]; 2.4 μg/ml): 2.2%
- Avg. % MN (TK6 cells [2]; 2.4 μg/ml): 4.4%
- Avg. M as % G2/M (TK6 cells [2]; 2.4 μg/ml): 9.7%
- Avg. % EMA+ (TK6 cells [2]; 3.3 μg/ml): 10.0%
- Avg. % M (TK6 cells [2]; 3.3 μg/ml): 3.4%
- Avg. % MN (TK6 cells [2]; 3.3 μg/ml): 9.2%
- Avg. M as % G2/M (TK6 cells [2]; 3.3 μg/ml): 12.2%
- Avg. % EMA+ (TK6 cells [2]; 4.9 μg/ml): 12.3%
- Avg. % M (TK6 cells [2]; 4.9 μg/ml): 4.4%
- Avg. % MN (TK6 cells [2]; 4.9 μg/ml): 12.5%
- Avg. M as % G2/M (TK6 cells [2]; 4.9 μg/ml): 11.3%
- Avg. % EMA+ (TK6 cells [2]; 6.5 μg/ml): 13.2%
- Avg. % M (TK6 cells [2]; 6.5 μg/ml): 4.6%
- Avg. % MN (TK6 cells [2]; 6.5 μg/ml): 15.8%
- Avg. M as % G2/M (TK6 cells [2]; 6.5 μg/ml): 10.2%
Compound: CC(=O)O[C@H]1C(=O)[C@@]2(C)[C@H]([C@H](OC(=O)c3ccccc3)[C@]3(O)C[C@H](OC(=O)[C@H](O)[C@@H](NC(=O)c4ccccc4)c4ccccc4)C(C)=C1C3(C)C)[C@]1(OC(C)=O)CO[C@@H]1C[C@@H]2O [Paclitaxel]

- Avg. % EMA+ (TK6 cells [2]; 0.005 μg/ml): 2.3%
- Avg. % M (TK6 cells [2]; 0.005 μg/ml): 1.6%
- Avg. % RS (TK6 cells [2]; 0.005 μg/ml): 83.3%
- Avg. M as % G2/M (TK6 cells [2]; 0.005 μg/ml): 5.7%
- Avg. % EMA+ (TK6 cells [2]; 0.01 μg/ml): 3.7%
- Avg. % M (TK6 cells [2]; 0.01 μg/ml): 1.4%
- Avg. % RS (TK6 cells [2]; 0.01 μg/ml): 69.6%
- Avg. M as % G2/M (TK6 cells [2]; 0.01 μg/ml): 5.2%
- Avg. % EMA+ (TK6 cells [2]; 0.02 μg/ml): 5.3%
- Avg. % M (TK6 cells [2]; 0.02 μg/ml): 1.2%
- Avg. % RS (TK6 cells [2]; 0.02 μg/ml): 52.6%
- Avg. M as % G2/M (TK6 cells [2]; 0.02 μg/ml): 3.8%
Compound: COc1cc([C@@H]2c3cc4c(cc3[C@@H](O[C@@H]3O[C@@H]5CO[C@@H](C)O[C@H]5[C@H](O)[C@H]3O)[C@H]3COC(=O)[C@H]23)OCO4)cc(OC)c1O [Etoposide]

Compound: CN[C@H]1CCc2cc(OC)c(OC)c(OC)c2-c2ccc(OC)c(=O)cc21 [demecolcine, Demecolcine]
- frequency of 4n anti-H3-P-positive events, FIG. 2 (TK6 cells [3]): greatly increased

- Avg. % EMA+ (TK6 cells [2]; 0.1 μg/ml): 2.0%
- Avg. % M (TK6 cells [2]; 0.1 μg/ml): 1.8%
- Avg. % MN (TK6 cells [2]; 0.1 μg/ml): 0.7%
- Avg. % RS (TK6 cells [2]; 0.1 μg/ml): 88.0%
- Avg. M as % G2/M (TK6 cells [2]; 0.1 μg/ml): 8.6%
- Avg. % EMA+ (TK6 cells [2]; 0.2 μg/ml): 2.7%
- Avg. % M (TK6 cells [2]; 0.2 μg/ml): 1.5%
- Avg. % MN (TK6 cells [2]; 0.2 μg/ml): 1.6%
- Avg. % RS (TK6 cells [2]; 0.2 μg/ml): 79.6%
- Avg. M as % G2/M (TK6 cells [2]; 0.2 μg/ml): 9.0%
- Avg. % EMA+ (TK6 cells [2]; 0.4 μg/ml): 4.0%
- Avg. % M (TK6 cells [2]; 0.4 μg/ml): 2.7%
- Avg. % MN (TK6 cells [2]; 0.4 μg/ml): 3.3%
- Avg. % RS (TK6 cells [2]; 0.4 μg/ml): 70.6%
- Avg. M as % G2/M (TK6 cells [2]; 0.4 μg/ml): 17.1%
- Avg. % EMA+ (TK6 cells [2]; 0.8 μg/ml): 5.8%
- Avg. % M (TK6 cells [2]; 0.8 μg/ml): 7.2%
- Avg. % MN (TK6 cells [2]; 0.8 μg/ml): 7.5%
- Avg. % RS (TK6 cells [2]; 0.8 μg/ml): 48.0%
- Avg. M as % G2/M (TK6 cells [2]; 0.8 μg/ml): 32.0%
- Avg. % EMA+ (TK6 cells [2]; 1.6 μg/ml): 8.8%
- Avg. % M (TK6 cells [2]; 1.6 μg/ml): 4.4%
- Avg. % MN (TK6 cells [2]; 1.6 μg/ml): 12.6%
- Avg. % RS (TK6 cells [2]; 1.6 μg/ml): 37.6%
- Avg. M as % G2/M (TK6 cells [2]; 1.6 μg/ml): 14.1%
Compound: CC[C@]1(O)C[C@@H]2CN(CCc3c([nH]c4ccccc34)[C@@](C(=O)OC)(c3cc4c(cc3OC)N(C)[C@H]3[C@@](O)(C(=O)OC)[C@H](OC(C)=O)[C@]5(CC)C=CCN6CC[C@]43[C@@H]65)C2)C1 [Vinblastine sulfate]
